Experimental data taken from patent publication US10369123B2, “Perk activator for the treatment of neurodegenerative diseases” (DEUTSCHES ZENTRUM FÜR NEURODEGENERATIVE ERKRANKUNGEN E.V. …, priority 2014, dated 2019).
Entries after “also recorded” stand apart in the source; their conditions may differ.

Target: T1, PERK (Mus musculus, UniProt Q9Z2B5)
T1 construct: from tissue; host or cells: mouse brain (C57BL/6 wild type; whole brain homogenates / frontal cortex)
T1 sequence (Q9Z2B5 29-1114): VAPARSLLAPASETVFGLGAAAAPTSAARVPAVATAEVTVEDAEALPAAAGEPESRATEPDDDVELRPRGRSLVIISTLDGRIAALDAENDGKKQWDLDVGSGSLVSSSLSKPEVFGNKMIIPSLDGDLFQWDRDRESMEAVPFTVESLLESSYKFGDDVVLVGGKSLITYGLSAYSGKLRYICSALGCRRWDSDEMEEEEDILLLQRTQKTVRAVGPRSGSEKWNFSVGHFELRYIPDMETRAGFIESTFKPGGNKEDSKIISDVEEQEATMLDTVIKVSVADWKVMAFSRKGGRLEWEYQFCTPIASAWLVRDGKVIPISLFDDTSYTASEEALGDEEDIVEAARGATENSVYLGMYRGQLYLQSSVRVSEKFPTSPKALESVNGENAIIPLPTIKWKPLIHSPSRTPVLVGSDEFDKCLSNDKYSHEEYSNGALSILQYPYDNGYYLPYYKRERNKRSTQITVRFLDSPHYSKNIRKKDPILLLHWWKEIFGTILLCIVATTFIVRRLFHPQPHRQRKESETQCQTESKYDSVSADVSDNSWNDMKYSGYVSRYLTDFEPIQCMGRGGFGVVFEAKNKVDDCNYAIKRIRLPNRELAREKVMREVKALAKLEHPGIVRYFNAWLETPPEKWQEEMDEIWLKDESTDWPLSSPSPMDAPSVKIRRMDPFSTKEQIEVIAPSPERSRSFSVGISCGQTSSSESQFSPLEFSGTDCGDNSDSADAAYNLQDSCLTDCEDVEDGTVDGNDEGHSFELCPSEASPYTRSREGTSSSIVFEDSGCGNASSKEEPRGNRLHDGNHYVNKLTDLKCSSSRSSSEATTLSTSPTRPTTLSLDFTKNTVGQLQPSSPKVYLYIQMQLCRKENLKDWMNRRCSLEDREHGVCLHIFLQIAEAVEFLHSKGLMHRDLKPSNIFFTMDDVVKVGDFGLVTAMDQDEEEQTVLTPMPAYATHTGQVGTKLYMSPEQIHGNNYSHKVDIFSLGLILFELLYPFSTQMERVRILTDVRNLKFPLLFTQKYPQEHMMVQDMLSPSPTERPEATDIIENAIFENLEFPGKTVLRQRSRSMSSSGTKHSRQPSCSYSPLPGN
Assay: Target engagement: Western blots of whole brain homogenates after intraperitoneal administration
Format: in vivo
Protocol: All animal work was conducted either on CR57BL/6 mice, obtained from Charles River Laboratories, Wilmington, Mass., USA, or on homozygous transgenic mice overexpressing human tau with the P301S mutation on a C57BL/6 background, originally developed by Michel Goedert (Xu et al. 2014), obtained by own breeding. Animals were kept at 23±1° C. under standard 12 h light-dark cycle with free access to food and water. They were handled according to the EU Council Directive 2010/63/EU, the Guide for the Care and Use of Laboratory Animals (National Research Council 2011) and the guidelines of the local institutional committee. The experiments were authorized by the local authority “Regierung von Oberbayern” under application number 55.2-1-54-2532-165-13.
5 mg of the PA compound CCT020312 (EMD Millipore, Billerica, Mass., USA) was first dissolved in 100 μl sterile DMSO (AppliChem, Darmstadt, Germany) and then diluted in sterile saline (B. Braun Medical, Melsungen, Germany) to achieve a stock solution of […].
For the initial short-term single-dose target-engagement trial, wild type mice were treated on three consecutive days with either 2 mg/kg of CCT020312 or saline of the equivalent volume by intraperitoneal injection. They were sacrificed by cervical dislocation four hours after the last injection.
For the short-term ascending-dose target-engagement trial, wild type mice at 15 weeks of age were treated on three consecutive days with once daily intraperitoneal (i.p.) injections of either 1, 2, or 5 mg/kg of CCT020312 or equivalent volumes of saline.
For the long-term single-dose target-engagement trial, wild type mice (n=3) at 9 weeks of age were treated for 6 weeks with once daily i.p. injections of either 2 mg/kg of CCT020312 or equivalent volumes of saline.
Mice were sacrificed by cervical dislocation twelve hours after the last injection. Their brains were frozen on dry ice and stored at −80° C. for Western blot analysis.
Frontal cortex tissue was dissected from the fresh-frozen sample on dry ice and suspended in 750 μl of T-PER Tissue Protein Extraction Reagent (Thermo Fisher Scientific) and 1× cOmplete Protease Inhibitor Cocktail Tablets (Hoffmann-La Roche) and 1× PhosSTOP Phosphatase Inhibitor Cocktail Tablets (Hoffmann-La Roche). The tissue piece was initially ground with a pestle inside a microcentrifuge tube on ice and then homogenized by sonification with Branson Sonifier 450 Analog (Branson, now Thermo Fisher Scientific) with 10×500 ms bursts at intensity level 3 on ice. The solution was then centrifuged at 5000 g for 15 minutes at 4° C. and the supernatant retrieved. Protein concentrations were determined using the BCA kit (Thermo Fisher Scientific) by heating the samples at 60° C. for 30 minutes and measuring the absorption on the NanoDrop 2000c spectrophotometer (Thermo Fisher Scientific).
20 μg of protein (200 μg for pPERK blots) were adjusted to equal concentrations between samples by dilution with M-PER and subsequently heated at 95° C. for 5 minutes with Roti®-Load 1 (Carl Roth). SDS-PAGE was performed using Any kD™ Mini-PROTEAN® TGX™ Gels (BioRad, Berkeley, Calif., USA) in a tris-glycine running buffer. The protein was blotted onto PVDF membrane (BioRad) at 70 V for 65 minutes whilst being cooled with ice. The membrane was blocked with 1× Roti®-Block solution (Carl Roth) for 1 h and then incubated at 4° C. overnight under gentle shaking with the primary antibody (see Table 6) in TBS with 5% BSA (Cell Signaling Technology) and 0.05% TWEEN (Sigma-Aldrich). The membranes were then washed and incubated with the species specific HRP-bound secondary antibody (Vector Laboratories, Burlingame, Calif., USA) at 1:2500 in 1× Roti®-Block solution for 2 h, followed by further washing and exposure to Clarity Western ECL Substrate (BioRad) or, in the case of MC1, to Amersham™ ECL™ Prime (GE Healthcare). […]

[1] = wild type mice, 2 mg/kg i.p. once daily for 6 weeks, 2 mg/kg
[2] = wild type mice, 1, 2 or 5 mg/kg i.p. once daily, three days

## CCN(CC)CCC(=O)N1N=C(c2c(-c3ccccc3)c3cc(Br)ccc3[nH]c2=O)CC1c1ccc(Br)cc1 (stereo not drawn) [CCT020312, 6-bromo-3-[5-(4-bromo-phenyl)-1-(3-diethylamino-propionyl)-4,5-dihydro-1H-pyrazol-3-yl]-4-phenyl-1H-quinolin-2-one]
mice, intraperitoneal, inferred from brain pEIF2A
  brain penetration: enters the brain
Wild type mice, 2 mg/kg i.p. once daily for 6 weeks, vs saline, 2 mg/kg
  pPERK in the brain: increase; also recorded: significantly increased
[1]
  pNRF2 level in the brain: significant increase; also recorded: significantly increased
  total NRF2 levels in the brain: without significant change; also recorded: no significant upregulation
  total PERK level in the brain: no obvious change; also recorded: no significant upregulation
Wild type mice, 2 mg/kg i.p. once daily, three days, vs saline
  pEIF2A in whole brain extracts: marked increase
[2]
  pNRF2 level in brain: dose-dependent increase
  total NRF2 in brain: without significant change
Wild type mice, 1, 2 or 5 mg/kg i.p. once daily, three days, vs saline
  phosphorylated PERK in whole brain extracts: marked increase; also recorded: significantly increased
